Experimental data reported in ChEMBL document CHEMBL4507277.

How the values were obtained:
[1] = test system: Tyrosine-protein kinase ABL1 (Homo sapiens), P00519 [E255K]; details: Compound concentration 1000.0 nM
[2] = test system: ALK tyrosine kinase receptor (Homo sapiens), Q9UM73 [C1156Y]; details: Compound concentration 1000.0 nM
[3] = test system: ALK tyrosine kinase receptor (Homo sapiens), Q9UM73 [L1196M]; details: Compound concentration 1000.0 nM
[4] = target: Calcium/calmodulin-dependent protein kinase type 1D (Homo sapiens) (UniProt Q8IU85); details: Compound concentration 1000.0 nM
[5] = target: Calcium/calmodulin-dependent protein kinase type 1G (Homo sapiens) (UniProt Q96NX5); details: Compound concentration 1000.0 nM
[6] = target: Calcium/calmodulin-dependent protein kinase type II subunit alpha (Homo sapiens) (UniProt Q9UQM7); details: Compound concentration 1000.0 nM
[7] = target: Calcium/calmodulin-dependent protein kinase type IV (Homo sapiens) (UniProt Q16566); details: Compound concentration 1000.0 nM
[8] = target: Casein kinase I isoform gamma-1 (Homo sapiens) (UniProt Q9HCP0); details: Compound concentration 1000.0 nM
[9] = target: Serine/threonine-protein kinase DCLK2 (Homo sapiens) (UniProt Q8N568); details: Compound concentration 1000.0 nM
[10] = target: Myotonin-protein kinase (Homo sapiens) (UniProt Q09013); details: Compound concentration 1000.0 nM
[11] = target: Serine/threonine-protein kinase MRCK gamma (Homo sapiens) (UniProt Q6DT37); details: Compound concentration 1000.0 nM
[12] = target: Epidermal growth factor receptor (Homo sapiens) (UniProt P00533); details: Compound concentration 1000.0 nM
[13] = target: Eukaryotic translation initiation factor 2-alpha kinase 1 (Homo sapiens) (UniProt Q9BQI3); details: Compound concentration 1000.0 nM
Sequence of Eukaryotic translation initiation factor 2-alpha kinase 1 (Homo sapiens) (Q9BQI3 whole entry): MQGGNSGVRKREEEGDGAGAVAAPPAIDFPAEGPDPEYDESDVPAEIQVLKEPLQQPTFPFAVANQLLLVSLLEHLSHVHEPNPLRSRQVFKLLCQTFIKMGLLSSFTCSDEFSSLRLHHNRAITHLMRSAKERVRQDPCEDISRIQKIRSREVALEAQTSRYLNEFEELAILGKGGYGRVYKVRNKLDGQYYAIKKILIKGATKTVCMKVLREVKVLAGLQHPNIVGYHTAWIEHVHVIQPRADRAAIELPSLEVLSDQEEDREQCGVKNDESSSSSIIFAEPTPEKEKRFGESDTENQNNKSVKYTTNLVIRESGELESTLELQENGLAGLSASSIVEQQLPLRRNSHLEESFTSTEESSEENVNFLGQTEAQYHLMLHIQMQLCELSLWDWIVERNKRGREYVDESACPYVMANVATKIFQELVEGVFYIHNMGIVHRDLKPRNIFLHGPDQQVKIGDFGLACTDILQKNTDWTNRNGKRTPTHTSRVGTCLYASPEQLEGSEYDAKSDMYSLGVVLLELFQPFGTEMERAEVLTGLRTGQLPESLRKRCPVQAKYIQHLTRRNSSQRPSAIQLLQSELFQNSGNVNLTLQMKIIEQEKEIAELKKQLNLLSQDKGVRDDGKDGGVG

[14] = target: Mitogen-activated protein kinase 15 (Homo sapiens) (UniProt Q8TD08); details: Compound concentration 1000.0 nM
[15] = target: Tyrosine-protein kinase Fyn (Homo sapiens) (UniProt P06241); details: Compound concentration 1000.0 nM
Sequence of Tyrosine-protein kinase Fyn (Homo sapiens) (P06241 2-537 limits assumed): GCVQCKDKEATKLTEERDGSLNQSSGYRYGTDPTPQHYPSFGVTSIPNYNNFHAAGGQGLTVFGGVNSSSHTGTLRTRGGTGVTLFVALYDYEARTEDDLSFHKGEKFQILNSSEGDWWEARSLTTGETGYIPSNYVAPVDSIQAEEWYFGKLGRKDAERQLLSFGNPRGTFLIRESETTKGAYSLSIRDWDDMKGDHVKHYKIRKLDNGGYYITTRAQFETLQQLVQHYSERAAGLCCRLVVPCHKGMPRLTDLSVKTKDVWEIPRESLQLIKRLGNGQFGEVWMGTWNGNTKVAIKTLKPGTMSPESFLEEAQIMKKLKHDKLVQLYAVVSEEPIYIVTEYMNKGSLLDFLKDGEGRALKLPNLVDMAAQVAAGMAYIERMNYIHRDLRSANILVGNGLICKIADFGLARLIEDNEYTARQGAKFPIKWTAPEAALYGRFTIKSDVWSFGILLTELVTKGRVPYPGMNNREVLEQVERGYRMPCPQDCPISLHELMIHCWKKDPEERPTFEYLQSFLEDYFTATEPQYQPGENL

[16] = target: Serine/threonine-protein kinase haspin (Homo sapiens) (UniProt Q8TF76); details: Compound concentration 1000.0 nM
Sequence of Serine/threonine-protein kinase haspin (Homo sapiens) (Q8TF76 whole entry): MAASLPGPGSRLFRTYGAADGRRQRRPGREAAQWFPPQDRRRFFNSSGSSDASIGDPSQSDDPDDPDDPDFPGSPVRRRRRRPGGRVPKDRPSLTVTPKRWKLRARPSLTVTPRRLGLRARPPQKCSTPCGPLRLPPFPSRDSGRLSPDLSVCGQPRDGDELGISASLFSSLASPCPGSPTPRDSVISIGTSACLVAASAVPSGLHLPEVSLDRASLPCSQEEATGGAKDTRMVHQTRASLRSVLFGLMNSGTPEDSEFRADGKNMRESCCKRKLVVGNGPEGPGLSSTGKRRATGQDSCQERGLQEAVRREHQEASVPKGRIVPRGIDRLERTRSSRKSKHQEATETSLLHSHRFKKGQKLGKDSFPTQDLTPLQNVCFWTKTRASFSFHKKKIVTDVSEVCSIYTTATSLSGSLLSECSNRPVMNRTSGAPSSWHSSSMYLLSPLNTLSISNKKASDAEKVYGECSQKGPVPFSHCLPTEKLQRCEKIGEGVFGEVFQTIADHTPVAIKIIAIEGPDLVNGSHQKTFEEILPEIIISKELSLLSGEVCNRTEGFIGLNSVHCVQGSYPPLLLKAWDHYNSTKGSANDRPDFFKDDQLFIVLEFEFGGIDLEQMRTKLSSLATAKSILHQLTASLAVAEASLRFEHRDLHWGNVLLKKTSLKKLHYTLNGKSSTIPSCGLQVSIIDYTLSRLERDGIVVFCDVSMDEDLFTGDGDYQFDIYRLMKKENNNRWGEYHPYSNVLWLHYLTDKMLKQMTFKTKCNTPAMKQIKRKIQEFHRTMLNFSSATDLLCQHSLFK

[17] = test system: Mast/stem cell growth factor receptor Kit (Homo sapiens), P10721 [A829P]; details: Compound concentration 1000.0 nM
Sequence of Mast/stem cell growth factor receptor Kit (Homo sapiens), P10721 [A829P] (P10721 whole entry A829P): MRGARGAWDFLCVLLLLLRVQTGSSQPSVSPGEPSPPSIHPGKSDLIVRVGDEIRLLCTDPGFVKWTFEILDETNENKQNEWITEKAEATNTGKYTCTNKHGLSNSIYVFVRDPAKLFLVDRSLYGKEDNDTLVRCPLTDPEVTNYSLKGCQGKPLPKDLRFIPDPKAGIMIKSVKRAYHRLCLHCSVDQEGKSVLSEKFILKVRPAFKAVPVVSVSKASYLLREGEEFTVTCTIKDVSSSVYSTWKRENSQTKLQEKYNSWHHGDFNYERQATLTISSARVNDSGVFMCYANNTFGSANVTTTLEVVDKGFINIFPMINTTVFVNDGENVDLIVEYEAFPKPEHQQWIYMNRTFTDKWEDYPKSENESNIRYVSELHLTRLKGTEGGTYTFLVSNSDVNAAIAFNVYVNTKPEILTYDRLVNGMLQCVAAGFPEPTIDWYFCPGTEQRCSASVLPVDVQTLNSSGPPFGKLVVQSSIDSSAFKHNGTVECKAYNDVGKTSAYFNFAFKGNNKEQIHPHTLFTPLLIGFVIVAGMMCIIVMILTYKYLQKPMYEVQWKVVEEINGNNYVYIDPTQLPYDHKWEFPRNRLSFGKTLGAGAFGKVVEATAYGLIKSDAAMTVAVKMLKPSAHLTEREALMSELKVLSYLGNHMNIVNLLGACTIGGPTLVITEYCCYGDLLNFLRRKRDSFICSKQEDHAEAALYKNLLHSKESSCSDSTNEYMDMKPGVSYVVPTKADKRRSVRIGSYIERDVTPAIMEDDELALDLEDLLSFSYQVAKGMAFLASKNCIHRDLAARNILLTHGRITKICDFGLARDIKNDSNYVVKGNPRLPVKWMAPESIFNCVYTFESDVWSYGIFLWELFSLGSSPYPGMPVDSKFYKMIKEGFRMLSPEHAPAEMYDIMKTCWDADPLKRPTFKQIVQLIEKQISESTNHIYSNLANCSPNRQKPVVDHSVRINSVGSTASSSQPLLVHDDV

[18] = test system: Mast/stem cell growth factor receptor Kit (Homo sapiens), P10721 [D816V]; details: Compound concentration 1000.0 nM
[19] = target: MAP kinase-activated protein kinase 5 (Homo sapiens) (UniProt Q8IW41); details: Compound concentration 1000.0 nM
[20] = target: Serine/threonine-protein kinase MARK1 (Homo sapiens) (UniProt Q9P0L2); details: Compound concentration 1000.0 nM
[21] = target: Dual specificity mitogen-activated protein kinase kinase 2 (Homo sapiens) (UniProt P36507); details: Compound concentration 1000.0 nM
[22] = target: Dual specificity mitogen-activated protein kinase kinase 3 (Homo sapiens) (UniProt P46734); details: Compound concentration 1000.0 nM
[23] = target: Platelet-derived growth factor receptor beta (Homo sapiens) (UniProt P09619); details: Compound concentration 1000.0 nM
[24] = target: Serine/threonine-protein kinase PLK1 (Homo sapiens) (UniProt P53350); details: Compound concentration 1000.0 nM
[25] = target: Protein kinase C theta type (Homo sapiens) (UniProt Q04759); details: Compound concentration 1000.0 nM
[26] = target: Serine/threonine-protein kinase D1 (Homo sapiens) (UniProt Q15139); details: Compound concentration 1000.0 nM
[27] = test system: Proto-oncogene tyrosine-protein kinase receptor Ret (Homo sapiens), P07949 [V804M]; details: Compound concentration 1000.0 nM
[28] = target: Dual serine/threonine and tyrosine protein kinase (Homo sapiens) (UniProt Q6XUX3); details: Compound concentration 1000.0 nM
[29] = target: Rho-associated protein kinase 1 (Homo sapiens) (UniProt Q13464); details: Compound concentration 1000.0 nM
[30] = target: Ribosomal protein S6 kinase beta-1 (Homo sapiens) (UniProt P23443); details: Compound concentration 1000.0 nM
Sequence of Ribosomal protein S6 kinase beta-1 (Homo sapiens) (P23443 whole entry, looked up): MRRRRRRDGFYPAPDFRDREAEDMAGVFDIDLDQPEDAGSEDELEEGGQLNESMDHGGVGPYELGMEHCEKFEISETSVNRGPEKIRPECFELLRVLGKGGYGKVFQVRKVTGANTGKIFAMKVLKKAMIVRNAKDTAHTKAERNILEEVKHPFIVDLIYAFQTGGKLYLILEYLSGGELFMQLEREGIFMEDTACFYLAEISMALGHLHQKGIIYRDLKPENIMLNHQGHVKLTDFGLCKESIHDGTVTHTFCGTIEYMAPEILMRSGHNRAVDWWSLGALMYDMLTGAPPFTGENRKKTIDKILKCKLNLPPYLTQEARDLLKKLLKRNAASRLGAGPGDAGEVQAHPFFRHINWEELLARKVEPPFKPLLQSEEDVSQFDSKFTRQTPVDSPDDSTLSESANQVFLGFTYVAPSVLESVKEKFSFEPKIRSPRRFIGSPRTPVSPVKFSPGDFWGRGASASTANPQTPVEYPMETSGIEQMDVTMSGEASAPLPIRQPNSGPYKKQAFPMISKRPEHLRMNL

[31] = target: STE20/SPS1-related proline-alanine-rich protein kinase (Homo sapiens) (UniProt Q9UEW8); details: Compound concentration 1000.0 nM
[32] = target: TRAF2 and NCK-interacting protein kinase (Homo sapiens) (UniProt Q9UKE5); details: Compound concentration 1000.0 nM
[33] = target: Activated CDC42 kinase 1 (Homo sapiens) (UniProt Q07912); details: Compound concentration 1000.0 nM
[34] = target: Tyrosine-protein kinase TXK (Homo sapiens) (UniProt P42681); details: Compound concentration 1000.0 nM
[35] = target: 5-hydroxytryptamine receptor 1B (Homo sapiens) (UniProt P28222); details: Compound concentration 10.0 uM
[36] = target: T1, 5-hydroxytryptamine receptor 3A (Homo sapiens) (UniProt P46098); details: Compound concentration 10.0 uM
T1 sequence (whole entry): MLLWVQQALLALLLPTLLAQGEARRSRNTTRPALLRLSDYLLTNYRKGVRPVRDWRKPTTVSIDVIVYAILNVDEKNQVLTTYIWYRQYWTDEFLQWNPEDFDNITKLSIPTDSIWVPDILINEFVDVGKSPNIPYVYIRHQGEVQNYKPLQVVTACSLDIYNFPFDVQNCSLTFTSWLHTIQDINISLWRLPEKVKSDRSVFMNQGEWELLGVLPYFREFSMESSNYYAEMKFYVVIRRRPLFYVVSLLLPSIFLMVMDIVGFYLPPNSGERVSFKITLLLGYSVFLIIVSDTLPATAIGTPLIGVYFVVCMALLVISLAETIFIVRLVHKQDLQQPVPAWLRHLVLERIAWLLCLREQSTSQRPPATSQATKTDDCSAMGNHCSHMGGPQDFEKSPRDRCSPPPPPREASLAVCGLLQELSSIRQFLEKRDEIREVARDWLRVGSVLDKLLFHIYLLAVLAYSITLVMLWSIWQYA

[37] = target: 5-hydroxytryptamine receptor 7 (Homo sapiens) (UniProt P34969); details: Compound concentration 10.0 uM
[38] = target: Sodium-dependent dopamine transporter (Homo sapiens) (UniProt Q01959); details: Compound concentration 10.0 uM
[39] = target: Histamine H1 receptor (Homo sapiens) (UniProt P35367); details: Compound concentration 10.0 uM

Sequence of ALK tyrosine kinase receptor (Homo sapiens), Q9UM73 [L1196M] (Q9UM73 whole entry L1196M, looked up): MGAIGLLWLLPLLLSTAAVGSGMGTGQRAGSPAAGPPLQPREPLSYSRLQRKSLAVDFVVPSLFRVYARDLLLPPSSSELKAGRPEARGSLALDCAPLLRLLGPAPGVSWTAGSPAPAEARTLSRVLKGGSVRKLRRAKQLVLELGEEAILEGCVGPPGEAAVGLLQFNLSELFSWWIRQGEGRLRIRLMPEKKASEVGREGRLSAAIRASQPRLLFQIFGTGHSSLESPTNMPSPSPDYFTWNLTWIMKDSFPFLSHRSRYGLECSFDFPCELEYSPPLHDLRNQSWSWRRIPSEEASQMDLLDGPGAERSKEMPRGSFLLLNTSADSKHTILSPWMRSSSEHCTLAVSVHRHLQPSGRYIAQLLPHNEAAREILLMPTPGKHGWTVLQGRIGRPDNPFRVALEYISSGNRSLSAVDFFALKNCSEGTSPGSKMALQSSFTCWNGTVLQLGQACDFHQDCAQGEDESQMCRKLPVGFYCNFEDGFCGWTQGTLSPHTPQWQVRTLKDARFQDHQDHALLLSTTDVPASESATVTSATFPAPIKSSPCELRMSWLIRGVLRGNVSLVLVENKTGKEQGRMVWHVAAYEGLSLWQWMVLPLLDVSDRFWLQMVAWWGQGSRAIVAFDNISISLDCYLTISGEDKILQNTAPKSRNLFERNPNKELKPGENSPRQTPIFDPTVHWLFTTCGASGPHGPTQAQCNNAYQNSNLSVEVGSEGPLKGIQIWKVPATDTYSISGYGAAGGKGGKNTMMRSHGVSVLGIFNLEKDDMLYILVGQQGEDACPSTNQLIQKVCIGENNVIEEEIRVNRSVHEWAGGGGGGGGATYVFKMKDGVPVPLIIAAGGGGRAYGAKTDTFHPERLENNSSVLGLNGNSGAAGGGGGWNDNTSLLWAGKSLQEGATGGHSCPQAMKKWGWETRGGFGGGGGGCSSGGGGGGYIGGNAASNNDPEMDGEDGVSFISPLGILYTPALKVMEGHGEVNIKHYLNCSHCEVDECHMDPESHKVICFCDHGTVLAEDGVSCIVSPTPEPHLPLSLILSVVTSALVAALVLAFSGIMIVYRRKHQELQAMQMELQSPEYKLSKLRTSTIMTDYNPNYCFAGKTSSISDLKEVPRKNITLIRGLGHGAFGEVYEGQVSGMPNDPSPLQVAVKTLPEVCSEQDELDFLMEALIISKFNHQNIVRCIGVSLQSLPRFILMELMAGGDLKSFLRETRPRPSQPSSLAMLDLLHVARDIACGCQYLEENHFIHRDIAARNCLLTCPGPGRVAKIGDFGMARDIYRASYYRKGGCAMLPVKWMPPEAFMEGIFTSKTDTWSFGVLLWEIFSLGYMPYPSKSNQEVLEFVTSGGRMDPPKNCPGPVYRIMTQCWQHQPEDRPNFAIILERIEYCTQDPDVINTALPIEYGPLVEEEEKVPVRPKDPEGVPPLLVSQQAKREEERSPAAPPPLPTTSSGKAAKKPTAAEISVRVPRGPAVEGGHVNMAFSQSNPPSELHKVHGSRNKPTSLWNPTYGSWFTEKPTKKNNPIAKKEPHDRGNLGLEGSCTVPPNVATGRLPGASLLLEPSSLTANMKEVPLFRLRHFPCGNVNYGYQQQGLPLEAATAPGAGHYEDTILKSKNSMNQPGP

CCS(=O)(=O)c1cc2cc(C[C@](O)(CC(C)(C)c3ccc(F)cc3C(N)=O)C(F)(F)F)[nH]c2cn1
inactive: residual activity [1] 92% | residual activity [2] 96% | residual activity [3] 87% | residual activity [4] 100% | residual activity [5] 100% | residual activity [6] 94% | residual activity [7] 100% | residual activity [8] 96% | residual activity [9] 100% | residual activity [10] 99% | residual activity [11] 100% | residual activity [12] 81% | residual activity [13] 100% | residual activity [14] 100% | residual activity [15] 77% | residual activity [16] 100% | residual activity [17] 89% | residual activity [18] 100% | residual activity [19] 93% | residual activity [20] 100% | residual activity [21] 95% | residual activity [22] 100% | residual activity [23] 100% | residual activity [24] 100% | residual activity [25] 87% | residual activity [26] 100% | residual activity [27] 100% | residual activity [28] 86% | residual activity [29] 84% | residual activity [30] 82% | residual activity [31] 100% | residual activity [32] 100% | residual activity [33] 100% | residual activity [34] 90% | inhibition [35] 9.55% | inhibition [36] 32.2% | inhibition [37] 4.98% | inhibition [38] -8.67% | inhibition [39] 4.27%

CCS(=O)(=O)c1cc2cc(C[C@@](O)(CC(C)(C)c3ccc(F)cc3C(N)=O)C(F)(F)F)[nH]c2cn1
inactive: residual activity [1] 90% | residual activity [2] 100% | residual activity [3] 100% | residual activity [4] 89% | residual activity [5] 100% | residual activity [6] 100% | residual activity [7] 100% | residual activity [8] 100% | residual activity [9] 100% | residual activity [10] 85% | residual activity [11] 96% | residual activity [12] 96% | residual activity [13] 80% | residual activity [14] 100% | residual activity [15] 100% | residual activity [16] 80% | residual activity [17] 73% | residual activity [18] 90% | residual activity [19] 81% | residual activity [20] 100% | residual activity [21] 67% | residual activity [22] 67% | residual activity [23] 100% | residual activity [24] 85% | residual activity [25] 97% | residual activity [26] 100% | residual activity [27] 74% | residual activity [28] 100% | residual activity [29] 69% | residual activity [30] 80% | residual activity [31] 84% | residual activity [32] 97% | residual activity [33] 100% | residual activity [34] 97% | inhibition [35] 4.85% | inhibition [36] 21.1% | inhibition [37] 4.44% | inhibition [38] 2.58% | inhibition [39] 6.19%
